Measured values published in patent US20160243023A1, “Novel Skin Remodeling Strategy” (ELC MANAGEMENT LLC, priority 2015, published 2016).

Key:
[1] = test system: human dermal fibroblasts (HDFs); test: TGFβ1-induced collagen synthesis in HDF after pretreatment with inducers of collagen phagocytosis (PIP EIA); assay type: cell-based; conditions: TGFβ1 used alone at 0.25 ng/ml, 72 hours
Method: • 1. On day 1, HDFs were plated in 96 well plates. • 2. On day 2, HDFs, after reaching confluence, were treated with medium (control) or with actives (test materials previously found by the inventors to be phagocytosis enhancers*; data not shown) under starvation conditions for 48 hours (step 1). • 3. On day 4, the actives were removed and the cells were treated with medium or with a collagen inducer, 0.25 ng/ml TGFβ1 in medium, for 72 hours (step 2). • 4. On day 7, medium was collected and analyzed for collagen release using a PIP EIA. The amount of PIP (pro-collagen ng/ml medium) is quantitated by measuring the absorbance using an EIA plate reader. Accurate sample concentrations of PIP can be determined by comparing the specific absorbances to a standard curve. Cell viability also was assessed using a standard 3-(4,5-dimethylthiazol-2-yl)-2,5-diphenyltetrazoliumbromide (MTT) assay. The assay involves the conversion of the water soluble MTT, a yellow tetrazole, to an insoluble purple formazan in living cells. The formazan is then solubilized and the concentration determined by measuring the absorbance at a wavelength of from about 500-600 nm using a spectrophotometer. […]

[2] = test system: human dermal fibroblasts (HDFs); test: Glycated collagen phagocytosis by HDFs (Phagocytosis Index); assay type: cell-based; conditions: beads pre-treated overnight with methylglyoxal; 3 hours incubation with HDFs
Method: • 1. On day 1, HDFs were plated in 24 well plates. • 2. On day 2, HDFs, after reaching confluence, were maintained for 48 hours under starvation conditions. • 3. On day 4, HDFs were incubated for 3 hours with collagen-coated microspheres (2×10^6 beads) as control or with collagen-coated microspheres (2×10^6 beads) that had been pre-treated overnight with glycation inducer, methylglyoxal. HDFs were then washed with PBS to remove unbound and loosely bound beads. • 4. Cell viability was measured using Presto Blue reagent; phagocytosis was measured by the determination of the fluorescence reading of internalized beads, using the procedure described above in Example 1. Results, shown in FIG. 11, are expressed as Phagocytosis Index (i.e., the ratio of the phagocytosis fluorescent signal divided by the viability signal).

Compound | increase in collagen synthesis compared with the non-treated control [1] | uptake by HDFs of pre-treated collagen-coated beads versus beads coated with unmodified collagen (Phagocytosis Index) [2]
TGFβ1: Transforming Growth Factor Beta 1, collagen inducer | 30% | –
CC(=O)C=O [methylglyoxal] | – | substantially the same rate
